Literature values, collected in patent publication US20240108740A1, “THERAPEUTIC COMPOSITIONS INCLUDING SPN10 AND USES THEREOF” (Stealth BioTherapeutics Inc., priority 2022, published 2024).
Non-standard residues stand in square brackets, D forms with d.

Key:
cell stress recovery = settings: Mitchell et al., bioRxiv; cited from earlier work
[1] = tested on: several mammalian cell types; settings: energy-independent manner; Zhao et al. 2003; cited from earlier work

Row | Substance | performance compared with SS-31 (cell culture assays, structure-activity analysis) (cell stress recovery) | penetration of the plasma membrane [1]
1 | H-F[dR]FK-NH2 [SS-20, reference compound] | consistently outperformed SS-31 | –
2 | H-D-Arg-Tyr-Lys-Phe-NH2 (H-[dR]YKF-NH2; SMILES N=C(N)NCCC[C@@H](N)C(=O)N[C@@H](Cc1ccc(O)cc1)C(=O)N[C@@H](CCCCN)C(=O)N[C@@H](Cc1ccccc1)C(N)=O) [SPN4, reference compound] | consistently outperformed SS-31 | –
3 | H-2′,6′-Dmt-D-Arg-Phe-Lys-NH2 | – | readily penetrates the plasma membrane
